The text below walks through data of paper PMC7269146, “Jingzhaotoxin-X, a gating modifier of Kv4.2 and Kv4.3 potassium channels purified from the venom of the Chinese tarantula Chilobrachys jingzhao” (The Journal of Venomous Animals and Toxins Including …, 2020).

In general, koff refers to the first-order rate constant of dissociation. One may read the Ki as a measure of affinity in units of concentration, obtained from inhibition or displacement. A low value points to higher affinity. Usually IC50 stands for the concentration that gives 50% inhibition. The low end stands for greater potency in that assay, the high end for weaker potency in that assay.

“Also recorded” adds a separate entry of the source. Where a SMILES comes first, the peptide text is derived from it. Bridges are numbered along the chain shown (N, C = ends).

In assay [1] the test system is Nav1.5. Nature of the assay: voltage-clamp, Nav1.5 currents. In kind it is cell-based, human. To be noted: 1 μM; n = 3. The source says: (§1) Rat cDNA genes encoding Kv4.2 (Accession: NM_031730.2) and Kv4.3 (Accession: AB003587.1) were subcloned to vector pcDNA3.1. In addition, human cDNA genes encoding Nav1.7 (Accession: DQ857292.1) and Nav1.5 (Accession: AB158469.2) were subcloned to vectors pcDNA3.1-mod and pcDNA3.1, separately. Then, Kv4.2, Kv4.3, Nav1.5 and Nav1.7 constructs were transiently transfected into the human embryonic kidney 293t (HEK293t) cells using lipofectamine 2000 (Invitrogen, USA) in accordance with manufacturer protocols. Thereafter, HEK293 cells were inoculated within Dulbecco’s modified Eagle’s medium (DMEM) containing 10% fetal bovine serum (FBS) at 5% CO2 and 37°C. The Kv4.3 channel and the Kv4.2 counterpart were then transfected in the absence of β subunit. Subsequently, cells were incubated with a DNA-lipofectamine mixture (one reporter plasmid for green fluorescence protein and channel constructs) for 4-6 h, and were washed with the fresh medium.
An EPC-10 patch-clamp amplifier (HEKA, Germany) was employed to record the potassium currents at the configuration of whole-cell patch-clamp under an ambient temperature of 22-25°C. The resistance was 2.0-3.0 MΩ when the recording pipette contained a full volume of internal solution (supplemented with 140 mM KCl, 10 mM HEPES, 2.5 mM MgCl2, 5 mM ATP and 11 mM EGTA). […]

Assay [2] has as its target T1, Kv4.3 (Rattus norvegicus, UniProt Q62897).
T1 construct: expressed in transfected cells; host or cells: HEK293t
T1 sequence (Q62897 1-655): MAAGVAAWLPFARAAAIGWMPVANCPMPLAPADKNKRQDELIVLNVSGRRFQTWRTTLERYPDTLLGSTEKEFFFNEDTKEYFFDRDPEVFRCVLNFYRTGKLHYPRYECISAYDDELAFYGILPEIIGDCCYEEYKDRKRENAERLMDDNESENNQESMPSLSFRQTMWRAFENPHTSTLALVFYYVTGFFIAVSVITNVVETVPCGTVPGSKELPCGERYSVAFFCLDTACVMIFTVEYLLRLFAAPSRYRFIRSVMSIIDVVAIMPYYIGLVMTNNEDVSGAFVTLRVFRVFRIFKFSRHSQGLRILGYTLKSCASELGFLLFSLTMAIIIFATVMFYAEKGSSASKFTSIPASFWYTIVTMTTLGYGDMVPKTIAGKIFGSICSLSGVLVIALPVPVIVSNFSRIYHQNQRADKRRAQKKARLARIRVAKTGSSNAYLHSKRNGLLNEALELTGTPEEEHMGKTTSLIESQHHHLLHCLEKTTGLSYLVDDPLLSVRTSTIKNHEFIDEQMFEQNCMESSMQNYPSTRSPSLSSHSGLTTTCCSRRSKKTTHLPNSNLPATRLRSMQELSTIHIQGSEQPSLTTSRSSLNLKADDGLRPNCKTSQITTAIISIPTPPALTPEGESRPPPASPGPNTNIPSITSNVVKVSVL
As to the kind of experiment: kinetic constants of JZTX-X at Kv4.3 channel (wash-in / wash-out). Type of assay: cell-based. To be noted: test conc. 0.5 μM, n = 8.
Description: as §1
(§2) An EPC-10 patch-clamp amplifier (HEKA, Germany) was employed to record the potassium currents at the configuration of whole-cell patch-clamp under an ambient temperature of 22-25°C. The resistance was 2.0-3.0 MΩ when the recording pipette contained a full volume of internal solution (supplemented with 140 mM KCl, 10 mM HEPES, 2.5 mM MgCl2, 5 mM ATP and 11 mM EGTA). KOH was utilized to adjust the pH to 7.2, while sucrose was employed to adjust the osmolarity to 310 mOsm/L. The culture medium was replaced with an external solution containing 150 mM NaCl, 2.5 mM CaCl2, 10 mM HEPES, 2 mM MgCl2, 5 mM KCl, and 10 mM D-glucose. Similarly, sucrose and NaOH were applied to adjust the osmolarity to 330 mOsm/L and pH to 7.4. […] The series resistance was maintained at about 5 MΩ, with 65-70% compensation. Finally, the leakage currents and linear capacitance were subtracted digitally according to the P/4 protocol.
As for kinetic calculations, curves as a function of peak currents vs. time were plotted from the toxin wash-out or wash-in moments. The software Sigmaplot 9.0 (Sigma, USA) was utilized to fit data to the first-order exponential equation. […]

For assay [3], the system named is Ito potassium channels. Nature of the assay: voltage-clamp, Ito potassium currents in rat DRG neurons. In kind it is cell-based. The procedure:
as §2, with “protocol. […]” for “protocol.”
Firstly, the effects of JZTX-X on the isoforms of potassium channels (including Kv1.1-1.3, Kv2.1, as well as Kv4.2-4.3) contained within the X. laevis oocytes were investigated through the microelectrode voltage-clamp approach. […] We also determined the effects of JZTX-X on Ito potassium channels in rat DRG neurons; those current amplitudes were inhibited by 54.4±6.8% when 500 nM JZTX-X was applied (Fig. 3K, n = 5).

As to `CC(C)C[C@@H]1NC(=O)[C@H](CCCCN)NC(=O)[C@H](Cc2ccc(O)cc2)NC(=O)[C@@H]2CSSC[C@@H]3NC(=O)[C@H](Cc4ccc(O)cc4)NC(=O)[C@H](Cc4ccccc4)NC(=O)CNC(=O)[C@H](C)NC(=O)[C@H](CSSC[C@H](NC(=O)[C@@H](N)CC(C)C)C(=O)N[C@@H](CO)C(=O)N[C@@H](CCCNC(=N)N)C(=O)N[C@@H](CCC(=O)O)C(=O)NCC(=O)N[C@@H](CCC(=O)O)C(=O)N[C@@H](Cc4ccccc4)C(=O)N2)NC(=O)[C@H](CSSC[C@@H](C(=O)N[C@@H](Cc2ccc(O)cc2)C(=O)N[C@@H](CCCNC(=N)N)C(=O)N[C@@H](CC(N)=O)C(=O)O)NC(=O)[C@H](Cc2c[nH]cn2)NC(=O)[C@H](CC(C)C)NC(=O)[C@H](C(C)C)NC(=O)[C@H](Cc2ccccc2)NC(=O)[C@H](C)NC(=O)[C@H](CCCCN)NC3=O)NC(=O)[C@H](CCCCN)NC(=O)[C@H](CCCNC(=N)N)NC1=O` [JZTX-X, Jingzhaotoxin-X] (H-LCSREGEFCYKLRKCCAGFYCKAFVLHCYRN-OH; disulfide 2-16, 9-21, 15-28; N-terminus assumed), in assay [1], the “effect on Nav1.5 channel” value is “negligible effect; also recorded: did not affect the currents”. Besides, in assay [2] (inverse of τ of toxin wash-in), the “kmod, Kv4.3 channel” value amounted to 0.073 ± 0.006 s⁻¹. The molecule also showed a koff in assay [2] (inverse of τ of toxin wash-out) of 0.005 ± 0.0004 s⁻¹. In assay [2] (method text: Kd = koff / kon), this molecule yielded a Ki of 735 ± 50 nM. In addition, the “inhibition of Ito current” value in assay [3] (500 nM, n = 5) is recorded as 54.4±6.8%. The molecule also had an IC50 in assay [3] (Hill equation fit, n = 6) of 386 nM.
